Experimental data: patent US12006314B2, “Anti-cancer nuclear hormone receptor-targeting compounds” (Nuvation Bio Inc., priority 2021, dated 2024)
Residue numbers refer to the chain shown, from its start.

Key:
LNCap cells = assay: Cell viability assay LNCap; type: cell-based; conditions: Homo sapiens, 144 h, 6 days, CellTiterGlo
Experimental: (§1) Cell viability assay: LNCap, 22Rv1, MCF7, MDAMB361, T47D, and IEC6 cells were seeded at a density of 500-2000 cells/well in 96 well plates, and a ‘T0’ (timepoint 0) was included along with the assay plate. The plates were then incubated at 37° C., 5% CO2 in a cell culture incubator overnight. On the next day, the ‘T0’ plate was assayed using CellTiterGlo (Promega, Inc) according to the manufacturer's instructions. The appropriate compounds were diluted in DMSO and added to the assay plate (final DMSO concentration of 0.1-0.2%) on the next day. The assay plates were incubated for 6 days at 37° C., 5% CO2. After the incubation period, the plates were assayed using CellTiterGlo (Promega, Inc) according to the manufacturer's instructions and luminescence was read on the EnVision plate reader. Inhibition of the tested compounds was determined by the following formula: Inhibition rate (%)=(1−(RLU compound−RLU day0)/(RLU control−RLU day0))*100%. GraphPadPrism was used to analyze the data and determine GI50/IC50 values.

[1] = target: T1, AR (cytosol from LnCaP cells) (Homo sapiens, UniProt P10275, T878A); assay: AR binding assay; conditions: 3H-R1881 1 nM, 4° C. 24 hrs
T1 construct: endogenous in cells; host or cells: LNCaP cytosol
T1 sequence (P10275 1-920 T878A): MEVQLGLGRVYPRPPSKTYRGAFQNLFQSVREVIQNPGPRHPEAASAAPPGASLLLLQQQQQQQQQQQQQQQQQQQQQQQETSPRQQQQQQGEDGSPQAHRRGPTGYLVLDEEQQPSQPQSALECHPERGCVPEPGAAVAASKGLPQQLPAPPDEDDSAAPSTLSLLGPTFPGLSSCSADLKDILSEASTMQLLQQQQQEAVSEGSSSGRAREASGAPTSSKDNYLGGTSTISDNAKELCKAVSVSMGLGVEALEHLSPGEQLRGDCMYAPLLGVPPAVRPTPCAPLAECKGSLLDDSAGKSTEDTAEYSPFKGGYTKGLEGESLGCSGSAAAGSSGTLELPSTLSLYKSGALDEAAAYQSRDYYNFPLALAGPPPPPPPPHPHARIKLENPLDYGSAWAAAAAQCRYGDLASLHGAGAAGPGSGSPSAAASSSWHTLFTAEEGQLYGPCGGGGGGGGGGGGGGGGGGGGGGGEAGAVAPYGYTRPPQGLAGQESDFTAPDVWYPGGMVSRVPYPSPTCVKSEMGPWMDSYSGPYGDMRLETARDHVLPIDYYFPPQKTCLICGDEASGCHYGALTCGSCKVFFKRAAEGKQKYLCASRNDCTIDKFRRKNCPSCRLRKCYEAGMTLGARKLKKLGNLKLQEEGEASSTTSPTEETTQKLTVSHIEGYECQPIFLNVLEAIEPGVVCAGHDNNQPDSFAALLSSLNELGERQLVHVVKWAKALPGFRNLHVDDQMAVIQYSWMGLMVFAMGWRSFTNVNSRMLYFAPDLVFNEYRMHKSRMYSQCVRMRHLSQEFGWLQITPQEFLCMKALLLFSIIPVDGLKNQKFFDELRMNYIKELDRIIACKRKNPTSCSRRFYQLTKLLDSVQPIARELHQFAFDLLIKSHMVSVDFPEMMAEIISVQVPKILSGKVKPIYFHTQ
Experimental: AR binding assay: To assess AR binding, test compound (top dose 10 μM, 4 fold serial dilution, 8 point dose response) and control (progesterone) were transferred to the assay plate. Cytosol from LnCaP cells was added to the plate, followed by addition of radiolabeled ^3H-R1881 at a final concentration of 1 nM. The plate was sealed, and the reaction was incubated at 300 rpm at 4° C. for 24 hrs. Radioligand absorption buffer (10 mM Tris-HCl, pH 7.4; 1.5 mM EDTA; 1 mM DTT; 0.25% charcoal; 0.0025% dextran) was then added to the plate, mixed, and incubated at 4° C. for 15 minutes. The plate was then centrifuged at 3000 rpm for 30 minutes at 4° C. The supernatant was transferred to the scint-tube and Tri-carb was used for scintillation counting.

[2] = target: T2, full-length androgen receptor (HEK293 cells stably expressing) (Homo sapiens, UniProt P10275); assay: AR antagonism assay; type: cell-based; conditions: testosterone 1 nM, 20 h, Steady-glo
T2 construct: HEK293 cells stably expressing the full-length androgen receptor were seeded; expressed in transfected cells
T2 sequence (P10275 1-920): T1 sequence (P10275 1-920 T878A) with A878T
Experimental: AR antagonism assay: To evaluate AR antagonist activity, test compound was added to the assay plate (top dose 10 μM, 3 fold serial dilution, 10 point dose response). HEK293 cells stably expressing the full-length androgen receptor were seeded at a density of 20000 cells/well in the assay plate. The assay plate was then incubated at room temperature for 10 minutes and at 37° C., 5% CO2 for 20 minutes. Testosterone is added to the assay plate at 1 nM final concentration and the assay plate incubated at 37° C., 5% CO2 for 20 h. After the incubation period, Steady-glo was added to the assay plate and mixed at room temperature for 20 minutes on an orbital shaker, before reading out on the EnVision plate reader.

22Rv1 cells = assay: Cell viability assay 22Rv1; type: cell-based; conditions: Homo sapiens, 22Rv1, 144 h; 6 days, CellTiterGlo
Experimental: as §1

IEC6 cells = assay: Cell viability assay IEC6; type: cell-based; conditions: Rattus norvegicus, IEC-6, 144 h; 6 days, CellTiterGlo
Experimental: as §1

| SMILES | GI50 (LNCap cells) | IC50 [1] | IC50 [2] | GI50 (22Rv1 cells) | IC50 (IEC6 cells) |
| --- | --- | --- | --- | --- | --- |
| CCc1cc2ncc(CN3CCN(c4ccc(C(=O)NCC5CCN(c6ccc(C(=O)N[C@H]7CC[C@H](Oc8ccc(C#N)c(Cl)c8)CC7)nn6)CC5)nc4)CC3)cc2[nH]c1=O [Compound 1, N-((1r,4r)-4-(3-Chloro-4-cyanophenoxy)cyclohexyl)-6-(4-((5-(4-((7-ethyl-6-oxo-5,6-dihydro-1,5-naphthyridin-3-yl)methyl)piperazin-1-yl)picolinamido)methyl)piperidin-1-yl)pyridazine-3-carboxamide] | ≤ 0.5 µM | 0.1 to 1 µM | > 10 µM | 0.5 to 5 µM | > 30 µM |
| CCc1cc2ncc(CN3CCN(CC4CCN(c5ccc(C(=O)N[C@H]6CC[C@H](Oc7ccc(C#N)c(Cl)c7)CC6)nn5)CC4)CC3)cc2[nH]c1=O [Compound 4, N-((1r,4r)-4-(3-Chloro-4-cyanophenoxy)cyclohexyl)-6-(4-((4-((7-ethyl-6-oxo-5,6-dihydro-1,5-naphthyridin-3-yl)methyl)piperazin-1-yl)methyl)piperidin-1-yl)pyridazine-3-carboxamide] | ≤ 0.5 µM | < 0.1 µM | > 10 µM | ≤ 0.5 µM | > 30 µM |
| CCc1cc2ncc(CN3CCN(c4ccc(-c5nnc([C@H](Nc6ccc(C#N)c(Cl)c6)[C@H](C)O)o5)cc4)CC3)cc2[nH]c1=O [Compound 63, 2-Chloro-4-(((1R,2S)-1-(5-(4-(4-((7-ethyl-6-oxo-5,6-dihydro-1,5-naphthyridin-3-yl)methyl)piperazin-1-yl)phenyl)-1,3,4-oxadiazol-2-yl)-2-hydroxypropyl)amino)benzonitrile] | 0.5 to 5 µM | 0.1 to 1 µM | > 10 µM | 5 to 30 µM | > 30 µM |
| CCc1cc2ncc(CN3CCN(c4ccc(-c5nnc([C@H](Nc6ccc(C#N)c(Cl)c6C)[C@H](C)O)o5)cc4)CC3)cc2[nH]c1=O [Compound 64, 2-Chloro-4-(((1R,2S)-1-(5-(4-(4-((7-ethyl-6-oxo-5,6-dihydro-1,5-naphthyridin-3-yl)methyl)piperazin-1-yl)phenyl)-1,3,4-oxadiazol-2-yl)-2-hydroxypropyl)amino)-3-methyl Benzonitrile] | 0.5 to 5 µM | 1 to 10 µM | > 10 µM | 5 to 30 µM | 0.5 to 5 µM |
| CCc1cc2ncc(CN3CCN(c4ccc(-c5nnc([C@H]6[C@H](C)OC(=O)N6c6ccc(C#N)c(Cl)c6)o5)cc4)CC3)cc2[nH]c1=O [Compound 65, 2-Chloro-4-((4R,5S)-4-(5-(4-(4-((7-ethyl-6-oxo-5,6-dihydro-1,5-naphthyridin-3-yl)methyl)-piperazin-1-yl)phenyl)-1,3,4-oxadiazol-2-yl)-5-methyl-2-oxooxazolidin-3-yl)benzonitrile] | 5 to 30 µM | > 10 µM | > 10 µM | > 30 µM | > 30 µM |

Further lines, with some results ahead:

| GI50 (LNCap cells) | IC50 [1] | IC50 [2] | GI50 (22Rv1 cells) | SMILES | IC50 (IEC6 cells) |
| --- | --- | --- | --- | --- | --- |
| 0.5 to 5 µM | < 0.1 µM | > 10 µM | 0.5 to 5 µM | CCc1cc2ncc(CN3CCN(CC4CCN(c5ccc(C(=O)N[C@H]6C(C)(C)[C@H](Oc7ccc(C#N)c(Cl)c7)C6(C)C)nn5)CC4)CC3)cc2[nH]c1=O [Compound 13, N-((1r,3r)-3-(3-Chloro-4-cyanophenoxy)-2,2,4,4-tetramethylcyclobutyl)-6-(4-((4-((7-ethyl-6-oxo-5,6-dihydro-1,5-naphthyridin-3-yl)methyl)piperazin-1-yl)methyl)piperidin-1-yl)pyridazine-3-carboxamide] | 0.5 to 5 µM |
| 0.5 to 5 µM | < 0.1 µM | > 10 µM | 0.5 to 5 µM | CCc1cc2ncc(CN3CCN(c4ccc(C(=O)N5CCN(CC6CCN(c7ccc(C(=O)N[C@H]8CC[C@H](Oc9ccc(C#N)c(Cl)c9)CC8)nn7)CC6)CC5)nc4)CC3)cc2[nH]c1=O [Compound 59, N-((1r,4r)-4-(3-Chloro-4-cyanophenoxy)cyclohexyl)-6-(4-((4-(5-(4-((7-ethyl-6-oxo-5,6-dihydro-1,5-naphthyridin-3-yl)methyl)piperazin-1-yl)picolinoyl)piperazin-1-yl)methyl)piperidin-1-yl)pyridazine-3-carboxamide] | > 30 µM |
| 0.5 to 5 µM | < 0.1 µM | > 10 µM | 0.5 to 5 µM | CCc1cc2ncc(CN3CCN(c4ccc(C(=O)N5CCN(C(=O)C6CCN(c7ccc(C(=O)N[C@H]8CC[C@H](Oc9ccc(C#N)c(Cl)c9)CC8)nn7)CC6)CC5)nc4)CC3)cc2[nH]c1=O [Compound 60, N-((1r,4r)-4-(3-Chloro-4-cyanophenoxy)cyclohexyl)-6-(4-(4-(5-(4-((7-ethyl-6-oxo-5,6-dihydro-1,5-naphthyridin-3-yl)methyl)piperazin-1-yl)picolinoyl)piperazine-1-carbonyl)piperidin-1-yl)pyridazine-3-carboxamide] | > 30 µM |
